Series [1] in a line: Solubility experiment in various solvents. Format: physicochemical. From the text:
[Experimental Example 1] Solubility Experiment of tetrakis(triphenylstannyl) Silicate
For manufacturing a thin film including the tetrakis(triphenylstannyl) silicate compound prepared in Example 1, solubility in various solvents was experimented and is shown in the following Tables 2 and 3: […]

Series [2] in a line: Stability in water (precipitation) of solution with acetic acid. The format is physicochemical. As to the method:
Since the photoresist composition included acetic acid, stability of tetrakis(triacetoxystannyl) silicate in water was able to be improved. When water was added at 5% to a 5% tetrakis(triacetoxystannyl) silicate solution, it was confirmed that precipitation occurred immediately. However, when acetic acid was added, precipitation was able to be prevented. It was confirmed that precipitation occurred after 3 minutes in a 10% acetic acid solution, after 3 hours in a 20% solution, and after 5 days in a 30% solution. Besides, the amount of precipitation was decreased as the acetic acid was added. Regarding a large amount of acetic acid, since a hydrolysis rate of an acetoxy group decreased according to le Chatelier's law, stability in water was improved.

The structures appear in SMILES notation.

For the compound `c1cc[c]([Sn]([O][Si]([O][Sn]([c]2ccccc2)([c]2ccccc2)[c]2ccccc2)([O][Sn]([c]2ccccc2)([c]2ccccc2)[c]2ccccc2)[O][Sn]([c]2ccccc2)([c]2ccccc2)[c]2ccccc2)([c]2ccccc2)[c]2ccccc2)cc1` [Example 1, tetrakis(triphenylstannyl) silicate], the Solubility entry in series [1] (Chloroform) was “highest solubilites and ◯”; in series [1] (Ethyl lactate (EL)) it was “Δ”; in series [1] (THF) it was “highest solubilites and ◯”; in series [1] (gamma-Butyrolactone (GBL)), “Δ”.

For `CC(=O)[O][Sn]([O]C(C)=O)([O]C(C)=O)[O][Si]([O][Sn]([O]C(C)=O)([O]C(C)=O)[O]C(C)=O)([O][Sn]([O]C(C)=O)([O]C(C)=O)[O]C(C)=O)[O][Sn]([O]C(C)=O)([O]C(C)=O)[O]C(C)=O` [Example 14, tetrakis(triacetoxystannyl) silicate], the “Time until precipitation occurred” value in series [2] (water added at 5% to 5% solution, no acetic acid) was “immediately”; in series [2] (water added, 10% acetic acid solution), 3 min; in series [2] (water added, 20% acetic acid solution), 180 min; in series [2] (water added, 30% acetic acid solution), 7200 min.

The values above are taken from patent US20240228518A1, “NOVEL ORGANOTIN SILICATE COMPOUNDS, PREPARATION METHODS THEREOF AND PHOTORESIST COMPOSITION CONTAINING THE SAME” (JSI SILICONE CO., priority 2022, published 2024).
